Test results reported in patent publication US20120214862A1, “MODULATION OF FACTOR 7 EXPRESSION” (ISIS Pharmaceuticals, Inc., priority 2009, published 2012).
In the oligonucleotide strings, read from the 5' end, every base follows the letter of its sugar. An asterisk marks phosphorothioate; unmarked linkages are phosphodiester. Other units and linkages are bracketed, terminal groups are in braces. A string of capitals states the bases alone. e = 2'-O-(2-methoxyethyl) (MOE); [5mC] = 5-methylcytosine; d = 2'-deoxy (DNA)

These substances were tested on human Factor 7 mRNA (assay: Antisense inhibition of human Factor 7 mRNA in HepB3 cells, lipofectin, 50 nM, real-time RT-PCR). Conditions: Example 1; HepB3 cells, lipofectin, 50 nM, ~24 h, relative to untreated control cells.
Type: cell-based
Description: Antisense oligonucleotides targeted to a Factor 7 nucleic acid were tested for their effects on Factor 7 mRNA in vitro. Cultured HepB3 cells at a density of 4,000 cells per well were transfected using lipofectin reagent with 50 nM antisense oligonucleotide. After a treatment period of approximately 24 hours, RNA was isolated from the cells and Factor 7 mRNA levels were measured by real-time RT-PCR, as described herein. Factor 7 mRNA levels were adjusted according to total RNA content as measured by RIBOGREEN®. Results are presented as percent inhibition of Factor 7, relative to untreated control cells.
(§1) Antisense oligonucleotides targeted to a Factor 7 nucleic acid were designed and tested for their effects on Factor 7 mRNA in vitro. Certain antisense oligonucleotides from Table 3 were also retested for their effects on Factor 7 mRNA in vitro. Cultured HepB3 cells at a density of 4,000 cells per well were transfected using lipofectin reagent with 50 nM antisense oligonucleotide. After a treatment period of approximately 24 hours, RNA was isolated from the cells and Factor 7 mRNA levels were measured by real-time RT-PCR, as described herein. Human Factor 7 primer probe set RTS 2927 was used to measure mRNA levels. Factor 7 mRNA levels were adjusted according to total RNA content as measured by RIBOGREEN®. Results are presented as percent inhibition of Factor 7, relative to untreated control.
as §1, with “tested” for “tested for their effects on Factor 7 mRNA in vitro. Certain antisense oligonucleotides from Table 3 were also retested”
These gapmers were designed by creating gapmers shifted slightly upstream and downstream (i.e. “microwalk”) of the original gapmers from Table 7. Gapmers were also created with various motifs, e.g. 5-10-5 MOE, 3-14-3 MOE, and 2-13-5 MOE. These gapmers were tested in vitro. Cultured HepB3 cells at a density of 4,000 cells per well were transfected using lipofectin reagent with 50 nM antisense oligonucleotide. After a treatment period of approximately 24 hours, RNA was isolated from the cells and Factor 7 mRNA levels were measured by real-time RT-PCR. Factor 7 mRNA levels were adjusted according to total RNA content, as measured by RIBOGREEN®. Results are presented as percent inhibition of Factor 7, relative to untreated control cells.
With “407632 (antisense eT*e[5mC]*e[5mC]*eG*eT*dT*d[5mC]*dG*dG*dG*d[5mC]*dA*dG*dG*d[5mC]*eA*eG*eA*eG*eG) [compound 407632]” the “% Inhibition (human Factor 7 mRNA)” value was 46%.
“407633 (antisense eG*e[5mC]*eA*eG*eG*d[5mC]*dA*dG*dT*d[5mC]*d[5mC]*dT*dG*dG*dG*eT*e[5mC]*eA*eT*e[5mC]) [compound 407633]” was tested, and the “% Inhibition (human Factor 7 mRNA)” value was 71%.
“407634 (antisense eG*eT*eG*eA*e[5mC]*dT*dG*d[5mC]*dT*dG*d[5mC]*dA*dG*dG*d[5mC]*eA*eG*eT*e[5mC]*e[5mC]) [compound 407634]” was tested, and the “% Inhibition (human Factor 7 mRNA)” value was 24%.
For “407635 (antisense eT*eG*eG*e[5mC]*e[5mC]*d[5mC]*d[5mC]*dA*dG*d[5mC]*dT*dG*dA*d[5mC]*dG*eA*eT*eG*e[5mC]*e[5mC]) [compound 407635]”, the “% Inhibition (human Factor 7 mRNA)” value was 64%.
“407636 (antisense eG*e[5mC]*eA*eG*e[5mC]*d[5mC]*d[5mC]*dT*dG*dG*d[5mC]*d[5mC]*d[5mC]*d[5mC]*dA*eG*e[5mC]*eT*eG*eA) [compound 407636]” was tested, and the “% Inhibition (human Factor 7 mRNA)” value was 75%.
In the case of “407637 (antisense eG*eT*eA*e[5mC]*eT*dG*dG*dG*dA*dG*dA*d[5mC]*d[5mC]*d[5mC]*dT*eG*eG*eT*eG*eT) [compound 407637]”, the “% Inhibition (human Factor 7 mRNA)” value is reported as 71%.
With “407638 (antisense eG*e[5mC]*e[5mC]*eA*e[5mC]*dT*d[5mC]*dG*dA*dT*dG*dT*dA*d[5mC]*dT*eG*eG*eG*eA*eG) [compound 407638]” the “% Inhibition (human Factor 7 mRNA)” value was 0%.
With “407639 (antisense eT*eT*eT*eG*e[5mC]*dA*dG*d[5mC]*d[5mC]*dA*d[5mC]*dT*d[5mC]*dG*dA*eT*eG*eT*eA*e[5mC]) [compound 407639]” the “% Inhibition (human Factor 7 mRNA)” value was 76%.
For “407640 (antisense eG*e[5mC]*eA*eT*eG*dA*dG*d[5mC]*dT*dT*dT*dT*dG*d[5mC]*dA*eG*e[5mC]*e[5mC]*eA*e[5mC]) [compound 407640]”, the “% Inhibition (human Factor 7 mRNA)” value was 79%.
For “407642 (antisense e[5mC]*eA*eG*e[5mC]*eA*dG*d[5mC]*d[5mC]*dT*dG*dA*dG*dG*d[5mC]*d[5mC]*eA*eG*e[5mC]*eA*eG) [compound 407642]”, the “% Inhibition (human Factor 7 mRNA)” value was 78%.
For “407644 (antisense eG*eA*eG*eG*eA*d[5mC]*dA*dG*d[5mC]*dA*d[5mC]*dA*d[5mC]*dA*dT*eG*eG*eA*eG*eT) [compound 407644]”, the “% Inhibition (human Factor 7 mRNA)” value was 66%.
For “407645 (antisense eG*eA*eG*eA*eG*d[5mC]*dT*dA*dA*dA*d[5mC]*dA*dA*d[5mC]*d[5mC]*eG*e[5mC]*e[5mC]*eT*eT) [compound 407645]”, the “% Inhibition (human Factor 7 mRNA)” value was 65%.
With “407646 (antisense eG*eG*eT*eG*eA*dT*dG*d[5mC]*dT*dT*d[5mC]*dT*dG*dA*dA*eT*eT*eG*eT*e[5mC]) [compound 407646]” the “% Inhibition (human Factor 7 mRNA)” value was 81%.
In the case of “407647 (antisense eG*e[5mC]*eA*eG*e[5mC]*d[5mC]*dG*dT*dT*dT*dA*dT*dT*dG*dT*eG*eA*eA*eG*e[5mC]) [compound 407647]”, the “% Inhibition (human Factor 7 mRNA)” value is reported as 83%.
In the case of “407649 (antisense eG*eA*eG*eG*eG*dT*dT*d[5mC]*dA*dT*dT*dT*d[5mC]*dA*dG*eT*eG*eA*eT*eG) [compound 407649]”, the “% Inhibition (human Factor 7 mRNA)” value is reported as 24%.
For “407650 (antisense e[5mC]*e[5mC]*eA*eT*eG*dT*dG*dA*dG*dG*dG*dT*dT*d[5mC]*dA*eT*eT*eT*e[5mC]*eA) [compound 407650]”, the “% Inhibition (human Factor 7 mRNA)” value was 39%.
In the case of “407651 (antisense eA*eG*e[5mC]*e[5mC]*eT*d[5mC]*dA*dA*dA*d[5mC]*dA*dT*d[5mC]*dT*dA*eT*e[5mC]*eA*eA*eA) [compound 407651]”, the “% Inhibition (human Factor 7 mRNA)” value is reported as 32%.
“407652 (antisense eT*eG*eG*eG*eA*dG*d[5mC]*dT*dA*d[5mC]*dA*dG*d[5mC]*d[5mC]*dT*e[5mC]*eA*eA*eA*e[5mC]) [compound 407652]” was tested, and the “% Inhibition (human Factor 7 mRNA)” value was 30%.
“407653 (antisense eA*eA*eT*eA*eT*d[5mC]*dA*dT*dT*dG*dA*d[5mC]*dA*dA*dG*eG*eG*e[5mC]*eT*eG) [compound 407653]” was tested, and the “% Inhibition (human Factor 7 mRNA)” value was 21%.
In the case of “407654 (antisense e[5mC]*e[5mC]*eA*e[5mC]*eT*dG*d[5mC]*dA*dG*d[5mC]*d[5mC]*dA*dG*dG*dG*e[5mC]*e[5mC]*eT*eG*eG) [compound 407654]”, the “% Inhibition (human Factor 7 mRNA)” value is reported as 34%.
In the case of “407655 (antisense eA*eG*eA*eG*eT*dG*d[5mC]*dA*dG*d[5mC]*dT*dT*dG*d[5mC]*d[5mC]*eA*eG*eG*eT*e[5mC]) [compound 407655]”, the “% Inhibition (human Factor 7 mRNA)” value is reported as 28%.
With “407656 (antisense e[5mC]*eA*eG*e[5mC]*eA*dA*dG*dA*dG*dT*dG*d[5mC]*dA*dG*d[5mC]*eT*eT*eG*e[5mC]*e[5mC]) [compound 407656]” the “% Inhibition (human Factor 7 mRNA)” value was 43%.
With “407657 (antisense eG*eG*eG*eA*e[5mC]*dT*d[5mC]*dA*dG*d[5mC]*dA*dA*dG*dA*dG*eT*eG*e[5mC]*eA*eG) [compound 407657]” the “% Inhibition (human Factor 7 mRNA)” value was 26%.
With “407658 (antisense eG*e[5mC]*eT*eT*eG*d[5mC]*d[5mC]*dG*dG*dA*dG*dT*d[5mC]*dT*dG*eA*eG*eT*eG*eG) [compound 407658]” the “% Inhibition (human Factor 7 mRNA)” value was 16%.
In the case of “407659 (antisense eG*eA*eT*eG*eG*d[5mC]*dA*dT*d[5mC]*dG*dA*dG*dT*d[5mC]*d[5mC]*eA*e[5mC]*eT*e[5mC]*eT) [compound 407659]”, the “% Inhibition (human Factor 7 mRNA)” value is reported as 55%.
With “407660 (antisense eG*e[5mC]*eT*e[5mC]*eT*dG*dA*dA*dG*dT*dA*dG*dA*dT*dG*eA*eT*eG*e[5mC]*e[5mC]) [compound 407660]” the “% Inhibition (human Factor 7 mRNA)” value was 16%.
“407661 (antisense eT*eT*eT*eA*e[5mC]*dA*dA*dG*dA*dG*d[5mC]*dA*dG*dG*dG*eT*eG*e[5mC]*e[5mC]*eT) [compound 407661]” was tested, and the “% Inhibition (human Factor 7 mRNA)” value was 47%.
For “407663 (antisense eT*eT*eG*e[5mC]*eA*dG*dG*d[5mC]*dA*dG*dG*dA*d[5mC]*dT*dG*eG*eT*eG*eG*eT) [compound 407663]”, the “% Inhibition (human Factor 7 mRNA)” value was 44%.
With “407664 (antisense e[5mC]*eA*eG*eG*eG*d[5mC]*dG*dA*dG*dG*d[5mC]*dA*dA*d[5mC]*d[5mC]*e[5mC]*e[5mC]*eG*eT*eG) [compound 407664]” the “% Inhibition (human Factor 7 mRNA)” value was 70%.
“407665 (antisense eG*eT*eT*eA*e[5mC]*dG*dA*dA*dG*dA*d[5mC]*dT*dG*dG*dG*eA*eA*eA*eT*eG) [compound 407665]” was tested, and the “% Inhibition (human Factor 7 mRNA)” value was 29%.
For “407666 (antisense eT*e[5mC]*e[5mC]*e[5mC]*e[5mC]*dA*dG*dG*dA*d[5mC]*dA*dT*d[5mC]*dT*dG*eG*eA*eA*e[5mC]*eT) [compound 407666]”, the “% Inhibition (human Factor 7 mRNA)” value was 52%.
In the case of “407667 (antisense eG*eT*eG*eG*e[5mC]*d[5mC]*dA*dT*dG*d[5mC]*d[5mC]*d[5mC]*dT*dG*dG*eG*eT*e[5mC]*eA*eG) [compound 407667]”, the “% Inhibition (human Factor 7 mRNA)” value is reported as 71%.
With “407668 (antisense eG*eA*eA*eG*e[5mC]*d[5mC]*dT*dT*dA*d[5mC]*d[5mC]*dT*dG*d[5mC]*d[5mC]*eA*eT*eG*eG*eA) [compound 407668]” the “% Inhibition (human Factor 7 mRNA)” value was 54%.
With “407669 (antisense eT*eA*eG*eA*e[5mC]*d[5mC]*d[5mC]*dT*d[5mC]*dA*dG*dT*dG*dA*dG*eT*eG*eT*e[5mC]*eG) [compound 407669]” the “% Inhibition (human Factor 7 mRNA)” value was 57%.
“407886 (antisense eG*e[5mC]*eA*eG*eA*dG*dG*dA*dG*d[5mC]*d[5mC]*dT*dG*dA*dG*eG*eG*e[5mC]*e[5mC]*eT) [compound 407886]” was tested, and the “% Inhibition (human Factor 7 mRNA)” value was 72%.
“407887 (antisense e[5mC]*e[5mC]*eA*eG*eG*d[5mC]*dA*dG*d[5mC]*d[5mC]*d[5mC]*dT*dG*dA*dA*eG*e[5mC]*e[5mC]*e[5mC]*eA) [compound 407887]” was tested, and the “% Inhibition (human Factor 7 mRNA)” value was 78%.
In the case of “407888 (antisense e[5mC]*eG*eA*eA*eG*dA*d[5mC]*dT*dG*d[5mC]*dA*dG*d[5mC]*d[5mC]*dA*eG*eG*e[5mC]*eA*eG) [compound 407888]”, the “% Inhibition (human Factor 7 mRNA)” value is reported as 34%.
For “407889 (antisense eT*e[5mC]*e[5mC]*eT*eG*dG*dG*dT*dT*dA*d[5mC]*dG*dA*dA*dG*eA*e[5mC]*eT*eG*e[5mC]) [compound 407889]”, the “% Inhibition (human Factor 7 mRNA)” value was 54%.

Same assay, conditions: HepB3 cells; gapmers targeted to nucleobases 14707 to 14732 of SEQ ID NO: 1 (Table 11)
In the case of “407642 (antisense e[5mC]*eA*eG*e[5mC]*eA*dG*d[5mC]*d[5mC]*dT*dG*dA*dG*dG*d[5mC]*d[5mC]*eA*eG*e[5mC]*eA*eG) [compound 407642]”, the “% Inhibition of human Factor 7 mRNA levels” value is reported as 63%.
